The record followed here is patent publication US10952992B2, “Methods of treating intraocular pressure with activators of Tie-2” (Aerpio Pharmaceuticals, Inc., priority 2015, dated 2021).

For one series, the system named is eye. Nature of the series: Example 3 ophthalmic examination, modified McDonald-Shadduck scoring (tolerability). In kind it is in vivo, New Zealand White rabbits. On the procedure:
Prior to placement on study, each animal underwent an ophthalmic examination (slitlamp biomicroscopy and indirect ophthalmoscopy). Ocular findings were scored according to a modified McDonald-Shadduck Scoring System and recorded on a standardized data sheet. The acceptance criteria for placement on study were scores of “0” for all variables.
Ophthalmic examination (slit-lamp biomicroscopy only) was performed at baseline (prior to the start of dosing) and on Days 1, 4, and 8. Ocular findings were scored according to a modified McDonald-Shadduck Scoring System. A slit lamp was used to observe conjunctival discharge, […], […], the cornea, the surface area of cornea involvement, pannus, pupillary response, aqueous flare, cellular flare, iris involvement, and the lens. An indirect ophthalmoscope was used to observe the vitreous, vitral hemorrhage, retinal detachment, retinal hemorrhage, and choroidal/retinal inflammation. Animals were prepared for observation by using a solution (atropine, tropicaminde, or phenylephrine) to dilate the pupils.
Conjunctival discharge was defined as a whitish gray precipitate from the eye. Scoring was as follows. • 0=Normal, no discharge. • 1=Discharge above normal and present on the inner portion of the eye but not on the lids or hairs of the eyelids. • 2=Discharge is abundant, easily observed and has collected on the lids and hairs of the eyelids. • 3=Discharge has been flowing over the eyelids so as to wet the hairs substantially on the skin around the eye.
Conjunctival congestion causes the blood vessels of the eye to become enlarged. Scoring was as follows. • 0=Normal, may appear blanched to reddish pink without perilimbal injection (except at the 12:00 and 6:00 positions) with vessels of the palpebral and bulbar conjunctiva easily observed. • 1=A flushed, reddish color predominantly confined to the palpebral conjunctiva with some perilimbal injection but primarily confined to the lower and upper parts of the eye from the 4:00 to the 7:00 and 11:00 to 1:00 positions. • 2=Bright red color of the palpebral conjunctiva with accompanying perilimbal injection covering at least 75% of the circumference of the perilimbal region. • 3=Dark, beefy red color with congestion of both the bulbar and palpebral conjunctiva along with pronounced perilimbal injection and the presence of petechial on the conjunctiva. The petechial generally predominates along the nictitating membrane and upper palprebal conjunctiva.
Conjunctival swelling, defined as swelling of the conjunctiva, was scored as follows. • 0=Normal or no swelling of the conjunctival tissue. • 1=Swelling above normal without eversion of the eyelids (easily discerned by noting upper and lower eyelids are positioned as in the normal eye); swelling generally starts in the lower cul-de-sac near the inner canthus. • 2=Swelling with misalignment of the normal approximation of the lower and upper eyelids; primarily confined to the upper eyelid so that in the initial stages, the misapproximation of the eyelids begins by partial eversion of the upper eyelid. In this state the swelling is confined generally to the upper eyelid with some swelling in the lower cul-de-sac. • 3=Swelling definite with partial eversion of the upper and lower eyelids essentially equivalent. […] It is difficult to retract the lids and observe the perilimbal region.
Iris involvement was observed by checking the iris for hyperemia of the blood vessels. Scoring was as follows. • 0=Normal iris without any hyperemia of the blood vessels. • 1=Some loss of transparency. Only the epithelium and/or the anterior half of the stroma are involved. The underlying structures are clearly visible although some cloudiness may be readily apparent. • 2=Involvement of the entire thickness of the stroma. […]

Series [1] in a line: Example 3 general health observations. In kind it is in vivo, New Zealand White rabbits. As to conditions: Example 3, 7 days topical or subcutaneous dosing. The method, then:
Animals were observed within their cages once daily throughout the study period. […] General health observations were recorded daily beginning on Day 1 and continuing throughout the course of the study.

Series [2] can be described thus: In vitro diffusion across rabbit cornea and sclera in Franz cell. It counts as in vitro ADME. As to conditions: 1.5% of the sodium salt with 5% HPβCD in 50:50 D5W:sterile water.
Series [3] concerns intraocular pressure in patients with diabetic macular edema. Nature of the series: Change in intraocular pressure from baseline, Compound 1 BID for 28 days (FIG. 1). It counts as in vivo, human. As to conditions: doses greater than 15 mg BID, 28 Day EOT. On the procedure:
The difference in IOP was determined at the end of the trial, which was 28 days after treatment began (28 Day EOT). Changes in IOP were determined both in the study eye and the fellow eye.

Where [4] appears, read: Day 1, Group 2 (0.45 mg/eye topical BID), N=5.

Counter-ions that a name gives are not always drawn.

In the case of `COC(=O)N[C@@H](Cc1ccccc1)C(=O)N[C@@H](Cc1ccc(NS(=O)(=O)O)cc1)c1csc(-c2cccs2)n1` [Compound 1 sodium salt], the “animals with mild conjunctival congestion (scores=1)” value in the series on eye (setting [4]) is on record as “five”; in the series with eye (Day 1, Group 3 (1.2 mg/eye topical BID), N=5), “two”; in the series with eye (Day 1, Group 4 (1.2 mg/eye topical QD), N=5), “one”; in the series on eye (Day 1, Group 5 (10 mg/kg SC BID), N=5) it was “three”; in the series on eye (Day 4, Group 2 (0.45 mg/eye topical BID), N=5), “two”; in the series with eye (Day 4, Group 3 (1.2 mg/eye topical BID), N=5), “two”. In addition, the “animals with mild conjunctival congestion (scores=1)” value was “one” in the series on eye (Day 4, Group 4 (1.2 mg/eye topical QD), N=5) and “none” with eye (Day 4, Group 5 (10 mg/kg SC BID), N=5). For the same compound, the “animals with mild conjunctival swelling” value in the series with eye (setting [4]) was “one”. Further, in the series on eye (Day 8, all groups), the ocular anomalies result is listed as “No ocular anomalies”. The “relation of mild conjunctival congestion to test article” value in the series with eye (Example 3) is “unrelated to the test article”. For the same compound, the “adverse effects on general health” value in series [1] is “No adverse effects”.

As for `COC(=O)N[C@@H](Cc1ccccc1)C(=O)N[C@@H](Cc1ccc(NS(=O)(=O)O)cc1)c1csc(-c2cccs2)n1` [Compound 1], the “diffusion across rabbit cornea and sclera in Franz cell” value in series [2] was “substantial diffusion”. Moreover, in series [3], the “change in IOP relative to pre-treatment baseline” value was “decreased IOP”.
